From patent publication US20050004186A1, “MEK inhibiting compounds” (Pfizer Inc, priority 2002, published 2005)
Several values for one entry are separate records, joined by “and”; a condition that tells them apart may be missing. Equal values may be shown once.

Tested on: MEK
Assay: Cellular assay for measuring MEK inhibition, C26CPA1 (inhibition of ERK phosphorylation in C26 cells)
Format: cell-based, murine
Conditions: for C26CPA1 % Inhibition @ 0.1 μM / C26CPA1 % Inhibition @ 1 μM: C26 cells; for IC50: murine colon 26 (C26) carcinoma cells, one hour at 37 C
Description: Cellular Assay for Measuring MEK Inhibition
MEK inhibitors were evaluated by determining their ability to inhibit phosphorylation of MAP kinase (ERK) in murine colon 26 (C26) carcinoma cells. Since ERK1 and ERK2 represent the only known substrates for MEK1 and MEK2, the measurement of inhibition of ERK phosphorylation in cells provides direct read out of cellular MEK inhibition by the compounds of the invention. Detection of phosphorylation of ERK was carried out either by Western blot or ELISA format. Briefly, the assays involve treatment of exponentially growing C26 cells with varying concentrations of the test compound (or vehicle control) for one hour at 37≡ C. For Western blot assay, cells were rinsed free of compound/vehicle and lysed in a solution containing 70 mM NaCl, 50 mM glycerol phosphate, 10 mM HEPES, […], 1% Triton X-100, 1 mM Na3VO4, 100 μM PMSF, 10 μM leupeptin and 10 μM pepstatin. Supernatants were then subjected to gel electrophoresis and hybridized to a primary antibody recognizing dually phosphorylated ERK1 and ERK2. To evaluate total MAPK levels, blots were subsequently ‘stripped’ and re-probed with a 1:1 mixture of polyclonal antibodies recognizing unphosphorylated ERK1 and ERK2. For pERK ELISA assay, pERK TiterZyme Enzyme immunometric Assay kits were acquired from Assay Designs, Inc (Ann Arbor, Mich.). Briefly, cells were harvested in lysis solution containing 50 mM β-glycerophosphate, 10 mM HEPES, pH7.4, 70 mM NaCl, 2 mM EDTA and 1% SDS and protein lysates were diluted 1:15 with supplied Assay buffer prior to the execution of the assay. The subsequent steps were carried out essentially as recommended by the manufacturer.

SMILES | C26CPA1 % Inhibition @ 0.1 μM | C26CPA1 % Inhibition @ 1 μM | IC50
Fc1cc(I)ccc1Nc1c(-c2nnc(NC3CC4CCC3C4)o2)ccc(F)c1F (stereo not drawn) [Example 51, Bicyclo[2,2,1]hept-2-yl-{5-[3,4-difluoro-2-(2-fluoro-4-iodo-phenylamino)-phenyl]-[1,3,4]oxadiazol-2-yl}-amine] | 13.1% | 96% | –
Cn1cccc1CCNc1nnc(-c2ccc(F)c(F)c2Nc2ccc(I)cc2F)o1 [Example 52, {5-[3,4-Difluoro-2-(2-fluoro-4-iodo-phenylamino)-phenyl]-[1,3,4]oxadiazol-2-yl}-[2-(1-methyl-1H-pyrrol-2-yl)-ethyl]-amine] | – | – | 86 nM
Cn1cnc(CCNc2nnc(-c3ccc(F)c(F)c3Nc3ccc(I)cc3F)o2)c1 [Example 53, {5-[3,4-Difluoro-2-(2-fluoro-4-iodo-phenylamino)-phenyl]-[1,3,4]oxadiazol-2-yl}-[2-(1-methyl-1H-imidazol-4-yl)-ethyl]-amine] | – | – | 230 nM
Fc1cc(I)ccc1Nc1c(-c2nnc(N3CCCC3CN3CCCC3)o2)ccc(F)c1F (stereo not drawn) [Example 54, {2,3-Difluoro-6-[5-(2-pyrrolidin-1-ylmethyl-pyrrolidin-1-yl)-[1,3,4]oxadiazol-2-yl]-phenyl}-(2-fluoro-4-iodo-phenyl)-amine] | 21.7% | 30.8% | –
COCC(C)Nc1nnc(-c2ccc(F)c(F)c2Nc2ccc(I)cc2F)o1 (stereo not drawn) [Example 55, {5-[3,4-Difluoro-2-(2-fluoro-4-iodo-phenylamino)-phenyl]-[1,3,4]oxadiazol-2-yl}-(2-methoxy-1-methyl-ethyl)-amine] | 23.9% | 25.2% | –
CCOCCCNc1nnc(-c2ccc(F)c(F)c2Nc2ccc(I)cc2F)o1 [Example 56, {5-[3,4-Difluoro-2-(2-fluoro-4-iodo-phenylamino)-phenyl]-[1,3,4]oxadiazol-2-yl}-(3-ethoxy-propyl)-amine] | – | – | 44 nM
O=C1OCCC1Nc1nnc(-c2ccc(F)c(F)c2Nc2ccc(I)cc2F)o1 (stereo not drawn) [Example 57, 3-{5-[3,4-Difluoro-2-(2-fluoro-4-iodo-phenylamino)-phenyl]-[1,3,4]oxadiazol-2-ylamino}-dihydro-furan-2-one] | 31.3% | 51.8% | –
CCOC(=O)CCNc1nnc(-c2ccc(F)c(F)c2Nc2ccc(I)cc2F)o1 [Example 58, 3-{5-[3,4-Difluoro-2-(2-fluoro-4-iodo-phenylamino)-phenyl]-[1,3,4]oxadiazol-2-ylamino}-propionic Acid Ethyl Ester] | 0% | 17.8% | –
Cc1cccc(C)c1OCC(C)Nc1nnc(-c2ccc(F)c(F)c2Nc2ccc(I)cc2F)o1 (stereo not drawn) [Example 59, {5-[3,4-Difluoro-2-(2-fluoro-4-iodo-phenylamino)-phenyl]-[1,3,4]oxadiazol-2-yl}-[2-(2,6-dimethyl-phenoxy)-1-methyl-ethyl]-amine] | 0% | 0% | –
CCN(CC)C1CCN(c2nnc(-c3ccc(F)c(F)c3Nc3ccc(I)cc3F)o2)C1 (stereo not drawn) [Example 60, (1-{5-[3,4-Difluoro-2-(2-fluoro-4-iodo-phenylamino)-phenyl]-[1,3,4]oxadiazol-2-yl}-pyrrolidin-3-yl)-diethyl-amine] | 8.2% | 68% | –
CN1CCCN(c2nnc(-c3ccc(F)c(F)c3Nc3ccc(I)cc3F)o2)CC1 [Example 61, {2,3-Difluoro-6-[5-(4-methyl-[1,4]diazepan-1-yl)-[1,3,4]oxadiazol-2-yl]-phenyl}-(2-fluoro-4-iodo-phenyl)-amine] | – | – | 850 nM
CN1CCCC1CCNc1nnc(-c2ccc(F)c(F)c2Nc2ccc(I)cc2F)o1 (stereo not drawn) [Example 62, {5-[3,4-Difluoro-2-(2-fluoro-4-iodo-phenylamino)-phenyl]-[1,3,4]oxadiazol-2-yl}-[2-(1-methyl-pyrrolidin-2-yl)-ethyl]-amine] | 53.7% | 98.5% | –
Fc1cc(I)ccc1Nc1c(-c2nnc(NCCCCN3CCCC3)o2)ccc(F)c1F [Example 63, {5-[3,4-Difluoro-2-(2-fluoro-4-iodo-phenylamino)-phenyl]-[1,3,4]oxadiazol-2-yl}-(4-pyrrolidin-1-yl-butyl)-amine] | – | – | 23 nM
CCN(CC)CCCC(C)Nc1nnc(-c2ccc(F)c(F)c2Nc2ccc(I)cc2F)o1 (stereo not drawn) [Example 64, N*4*-{5-[3,4-Difluoro-2-(2-fluoro-4-iodo-phenylamino)-phenyl]-[1,3,4]oxadiazol-2-yl}-N*1* ,N*1*-diethyl-pentane-1,4-diamine] | 0% | 18.2% | –
Fc1cc(I)ccc1Nc1c(-c2nnc(NCC3CCCO3)o2)ccc(F)c1F (stereo not drawn) [Example 65, {5-[3,4-Difluoro-2-(2-fluoro-4-iodo-phenylamino)-phenyl]-[1,3,4]oxadiazol-2-yl}-(tetrahydro-furan-2-ylmethyl)-amine] | 0% | 12.7% | –
COCCN(CCOC)c1nnc(-c2ccc(F)c(F)c2Nc2ccc(I)cc2F)o1 [Example 66, {5-[3,4-Difluoro-2-(2-fluoro-4-iodo-phenylamino)-phenyl]-[1,3,4]oxadiazol-2-yl}-bis-(2-methoxy-ethyl)-amine] | 0% | 12.5% | –
CCc1ccc(Nc2c(-c3nnc(N4CCCC4)o3)ccc(F)c2F)c(F)c1 [Example 75, [2,3-Difluoro-6-(5-pyrrolidin-1-yl-1,3,4-oxadiazol-2-yl)-phenyl]-(4-ethyl-2-fluoro-phenyl)-amine] | – | 39.1% and 30.6% | –
C=CCN(CC=C)c1nnc(-c2ccc(F)c(F)c2Nc2ccc(CC)cc2F)o1 [Example 83, Diallyl-{5-[2-(4-ethyl-2-fluoro-phenylamino)-3,4-difluoro-phenyl]-1,3,4-oxadiazol-2-yl}-amine] | 65.6% | 77.9% | –
CCc1ccc(Nc2c(-c3nnc(N(C)CCCN(C)C)o3)ccc(F)c2F)c(F)c1 [Example 93, N^1-{5-[2-(4-Ethyl-2-fluoro-phenylamino)-3,4-difluoro-phenyl]-1,3,4-oxadiazol-2-yl}-N1,N>3,N>3-trimethyl-propane-1.3-diamine] | 0% | 31.9% | –
CCc1ccc(Nc2c(-c3nnc(N(CCCN(C)C)CCCN(C)C)o3)ccc(F)c2F)c(F)c1 [Example 96, N^1-(3-Dimethylamino-propyl)-N^1-{5-[2-(4-ethyl-2-fluoro-phenylamino)-3,4-difluoro-phenyl]-1,3,4-oxadiazol-2-yl}-N>3,N>3-dimethyl-propane-1,3-diamine] | 54% | 55% | –
CCCN(CC1CC1)c1nnc(-c2ccc(F)c(F)c2Nc2ccc(CC)cc2F)o1 [Example 100, Cyclopropylmethyl-{5-[2-(4-ethyl-2-fluoro-phenylamino)-3,4-difluoro-phenyl]-1,3,4-oxadiazol-2-yl}-propyl-amine] | 37.1% | 40.5% | –
CCc1ccc(Nc2c(-c3nnc(N4CCN(CC)CC4)o3)ccc(F)c2F)c(F)c1 [Example 101, (4-Ethyl-2-fluoro-phenyl)-{6-[5-(4-ethyl-piperazin-1-yl)-1,3,4-oxadiazol-2-yl]-2,3-difluoro-phenyl}-amine] | 41.2% | 47.1% | –
CCc1ccc(Nc2c(-c3nnc(N(C)C4CCN(C)C4)o3)ccc(F)c2F)c(F)c1 (stereo not drawn) [Example 102, {5-[2-(4-Ethyl-2-fluoro-phenylamino)-3,4-difluoro-phenyl]-1,3,4-oxadiazol-2-yl}-methyl-(1-methyl-pyrrolidin-3-yl)-amine] | 42.4% | 54.6% | –
CCc1ccc(Nc2c(-c3nnc(N4CCN(C)CC4)o3)ccc(F)c2F)c(F)c1 [Example 112, {2,3-Difluoro-6-[5-(4-methyl-piperazin-1-yl)-1,3,4-oxadiazol-2-yl]-phenyl}-(4-ethyl-2-fluoro-phenyl)-amine] | 62.6% | 84% | –
CCc1ccc(Nc2c(-c3nnc(NCCc4cccs4)o3)ccc(F)c2F)c(F)c1 [Example 114, {5-[2-(4-Ethyl-2-fluoro-phenylamino)-3,4-difluoro-phenyl]-1,3,4-oxadiazol-2-yl}-(2-thiophen-2-yl-ethyl)-amine] | 35.4% | 46.3% | –
CCc1ccc(Nc2c(-c3nnc(N(C)CCS(C)(=O)=O)o3)ccc(F)c2F)c(F)c1 [Example 121, {5-[2-(4-Ethyl-2-fluoro-phenylamino)-3,4-difluoro-phenyl]-1,3,4-oxadiazol-2-yl}-(2-methanesulfonyl-ethyl)-methyl-amine] | 0% | 26.9% | –
CCc1ccc(Nc2c(-c3nnc(N4CCN(Cc5ccccn5)CC4)o3)ccc(F)c2F)c(F)c1 [Example 123, {2,3-Difluoro-6-[5-(4-pyridin-2-ylmethyl-piperazin-1-yl)-1,3,4-oxadiazol-2-yl]-phenyl}-(4-ethyl-2-fluoro-phenyl)-amine] | 0% | 0% | –
